Test results: patent US4284633A, “Derivatives of xanthine” (Boehringer Mannheim GmbH, priority 1979, dated 1981)

Test system: antigen induced bronchospasm
Assay: inhibition of antigen induced bronchospasm in passively sensitized guinea pigs
Type: in vivo, guinea pig
Conditions: 5 minutes before antigen, evaluated 3 minutes after antigen
Experimental: Specifically, tests were run as follows:
The antigen is twice recrystallized egg albumin.
The animals were bled and the pooled serum stored at -20° C.
Injections of 0.5 ml antiserum of 1:50 dilution were given i.v. 24-48 h before challenge.
Guinea pigs were anaesthetized with pentobarbital sodium (40 mg/kg i.p.). Cannulae were tied into the trachea and the jugular vein and the lung inflated with a pump at a rate of 72 strokes/min and a constant stroke volume of 6-8 ml.
Bronchospasm, provoked by injecting ovalbumin i.v. was measured as described by Konzett, H. and R. Rossler, "Versuchsanordnung und Untersuchungen an der Bronchialmuskulatur" Naunyn-Schmiedebergs, Arch. exp. Path. Pharmak.
The drugs were applied intravenously 5 minutes before the antigen.
For calculation the following formula was used: [formula] b=Bronchospasm after antigen injection, measured in mm from tracing m=maximum height of tracing in mm with arm of the treachea-cannula clamped
a=pre injection height of the tracing in mm

SMILES	% inhibition Br Sp (antigen induced bronchospasm) (0.1 mg/kg i.v.)	% inhibition Br Sp (antigen induced bronchospasm) (0.38 mg/kg i.v.)	also measured
Cn1c(=O)c2c(ncn2CCCN2CCC(NC(=O)c3cccs3)CC2)n(C)c1=O [Example 4d, 7-{3-[4-(thiophene-2-carboxamido)-piperidino]-propyl}-theophylline]	38%	–	–
CC(=O)NC1CCN(CCCn2cnc3c2c(=O)n(C)c(=O)n3C)CC1 [Example 2c, 7-[3-(4-acetamidopiperidino)-propyl]-theophylline]	–	37%	–
Cn1c(=O)c2c(ncn2CCCN2CCC(NC(=O)c3ccccc3O)CC2)n(C)c1=O [Example 4a, 7-{3-[4-(2-hydroxybenzamido)-piperidino]-propyl}-theophylline]	82%	–	–
Cn1c(=O)c2[nH]cnc2n(C)c1=O [Aminophylline, reference compound]	–	–	% inhibition Br Sp (antigen induced bronchospasm) (24 mg/kg i.v.): 29%
Cn1c(=O)c2c(ncn2CCCN2CCC(NC(=O)Cc3ccccc3)CC2)n(C)c1=O [Example 2e, 7-[3-(4-phenylacetamidopiperidino)-propyl]-theophylline]	–	68%	–
Cc1ccccc1C(=O)NC1CCN(CCCn2cnc3c2c(=O)n(C)c(=O)n3C)CC1 [Example 2d, 7-{3-[4-(2-methylbenzamido)-piperidino]-propyl}-theophylline]	60%	–	–
